The record followed here is patent publication US9206173B2, “Heterocyclic compounds for the treatment of stress-related conditions” (OTSUKA PHARMACEUTICAL CO., LTD., priority 2009, dated 2015).

Counter-ions that a name gives are not always drawn.

The term Ki denotes a measure of affinity in units of concentration, obtained from inhibition or displacement.

human GPR10, sequence (P49683 whole entry): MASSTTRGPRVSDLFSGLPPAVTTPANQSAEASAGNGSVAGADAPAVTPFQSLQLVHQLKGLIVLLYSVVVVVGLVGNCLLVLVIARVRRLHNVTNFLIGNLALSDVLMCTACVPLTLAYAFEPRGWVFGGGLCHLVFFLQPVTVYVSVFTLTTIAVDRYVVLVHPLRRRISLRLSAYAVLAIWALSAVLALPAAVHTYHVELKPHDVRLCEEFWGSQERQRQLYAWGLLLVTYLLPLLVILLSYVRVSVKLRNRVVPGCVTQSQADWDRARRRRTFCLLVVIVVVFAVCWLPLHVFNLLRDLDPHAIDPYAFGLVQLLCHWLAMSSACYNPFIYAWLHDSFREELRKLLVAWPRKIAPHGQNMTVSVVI

In the assay the target is human GPR10 (Homo sapiens (Human), UniProt P49683). Briefly: Inhibitory activity on binding of [3H]-PrRP to GPR10 (HEK 293 cell membrane fraction). Conditions: [3H]-PrRP 1 nM, human GPR10-expressing HEK 293 cell membrane fraction; Ki from IC50 by Cheng-Prussoff formula. Here is the method:
Inhibitory Activity on Binding of [^3H]-PrRP to GPR10
Human GPR10 receptor expressing human embryonic kidney cells, HEK 293 cells, were cultured in Dulbecco's Modified Eagle's medium supplemented with 10% fetal bovine serum and 1% penicilline-streptmycin at 37° C., in 5% carbon dioxide gas conditions. The medium was removed and the cells were recovered in a phosphate buffer to prepare a cell suspension. The cell suspension was homogenated on ice by an ultrasonic cell homogenizer (Microson™ type XL200) and centrifuged at 40,000 g for 10 minutes at 4° C. After the supernatant was discarded, Buffer A (20 mM HEPES, 10 mM EDTA, 1 μl/ml protease inhibiting cocktail, pH 7.4) was added to the pellet. The pellet was suspended by the ultrasonic cell homogenizer, then the suspension was centrifuged at 40,000 g, for 10 minutes at 4° C. After this operation was repeated once again, the supernatant was discarded, Buffer B (20 mM HEPES, 0.1 mM EDTA, pH 7.4) was added to the pellet, and the pellet was suspended by the ultrasonic homogenizer. This was stored at a freezer of −80° C. as a cell membrane fraction until use in a binding test.
To each well of a 96-well plate, 150 μl of assay buffer (20 mM HEPES, 10 mM EDTA, 1 μl/ml protease inhibiting agent cocktail, pH 7.4), 20 μl of cell membrane fraction, 10 μl of test compound and [^3H]-PrRP (final concentration 1 nM) were added and incubated at room temperature for 90 minutes. After completion of the reaction, using a cell harvester, the cell-membrane fraction sample product was filtered under aspiration by a glass fiber filter plate (Unifilter; GF/B) previously treated with 0.5% polyethylene imine. The filter was washed with a 50 mM Tris hydrochloric acid buffer (pH 7.4) three times. After the filter was dried in a dryer (50° C.) for about 3 hours, 40 μl of liquid scintillation cocktail (MicroScint-O) was added to each well and radio activity was measured by a scintillation counter (Packard Topcount). The radio activity in the presence of an excessive amount of non-labeled PrRP (final concentration: 100 nM) was regarded as non-specific binding.
The binding inhibition rate was calculated based on calculating formula: 100−(radio activity when a compound is added−radio activity of non-specific binding)÷(radio activity when a solvent is added−radio activity of non-specific binding)×100.
An IC50 value was calculated based on the concentration dependent reaction using a non-linear analysis program and a Ki value was calculated using Cheng-Prussoff formula.
Turning to `C#CCCn1c(N[C@@H](C)c2ccc(C(F)(F)F)cc2)nc2c(c1=O)CN(C(=O)c1ccc(-n3ccnc3)cc1)CC2` [Example 2434, 3-(3-butynyl)-6-(4-imidazol-1-ylbenzoyl)-2-[(S)-1-(4-trifluoromethylphenyl)ethylamino]-5,6,7,8-tetrahydro-3H-pyrido[4,3-d]pyrimidin-4-one], the Ki is 9 nM. The value for `COn1c(N[C@H](c2ccc(Cl)cc2)C(C)C)nc2c(c1=O)CN(C(=O)c1ccc3c(c1)CCC(=O)N3C)CC2` [Example 2487, 2-[(S)-1-(4-chlorophenyl)-2-methylpropylamino]-3-methoxy-6-(1-methyl-2-oxo-1,2,3,4-tetrahydro-quinoline-6-carbonyl)-5,6,7,8-tetrahydro-3H-pyrido[4,3-d]pyrimidin-4-one] was 24 nM; that for `C[C@H](Nc1nc2c(c(=O)n1N(C)C)CN(C(=O)COc1ccc(Cl)cc1)CC2)c1ccc(C(F)(F)F)cc1` [Example 2442, 6-[2-(4-chlorophenoxy)acetyl]-3-dimethylamino-2-[(S)-1-(4-trifluoromethylphenyl)ethylamino]-5,6,7,8-tetrahydro-3H-pyrido[4,3-d]pyrimidin-4-one hydrochloride] was 140 nM. The value for `C#CCCn1c(N[C@@H](C)c2ccc(C(F)(F)F)cc2)nc2c(c1=O)CN(C(=O)c1ccc(-c3cnco3)cc1)CC2` [Example 2438, 3-(3-butynyl)-6-(4-oxazol-5-ylbenzoyl)-2-[(S)-1-(4-trifluoromethylphenyl)ethylamino]-5,6,7,8-tetrahydro-3H-pyrido[4,3-d]pyrimidin-4-one] was 26 nM. `COn1c(N[C@@H](C)c2ccc(C(F)(F)F)cc2)nc2c(c1=O)CN(C(=O)c1ccc(C)c(F)c1)CC2` [Example 2457, 6-(3-fluoro-4-methylbenzoyl)-3-methoxy-2-[(S)-1-(4-trifluoromethylphenyl)ethylamino]-5,6,7,8-tetrahydro-3H-pyrido[4,3-d]pyrimidin-4-one] returned a Ki of 8 nM. As to `COn1c(N[C@@H](C)c2ccc(C(F)(F)F)cc2)nc2c(c1=O)CN(C(=O)c1cc3occc3n1C)CC2` [Example 2465, 3-methoxy-6-(4-methyl-4H-furo[3,2-b]pyrrole-5-carbonyl)-2-[(S)-1-(4-trifluoromethylphenyl)ethylamino]-5,6,7,8-tetrahydro-3H-pyrido[4,3-d]pyrimidin-4-one], the Ki came to 10 nM.

Consider `COn1c(N[C@H](c2ccc(Cl)cc2)C(C)C)nc2c(c1=O)CN(C(=O)c1ccc(-n3ccnc3)cc1)CC2` [Example 2481, 2-[(S)-1-(4-chlorophenyl)-2-methylpropylamino]-6-(4-imidazol-1-ylbenzoyl)-3-methoxy-5,6,7,8-tetrahydro-3H-pyrido[4,3-d]pyrimidin-4-one], for which the inhibition constant (Ki) was 31 nM. In turn, `C#CCn1c(N[C@@H](C)c2ccc(C(F)(F)F)cc2)nc2c(c1=O)CN(C(=O)c1c(F)cccc1F)CC2` [Example 2478, 6-(2,6-difluorobenzoyl)-3-(2-propynyl)-2-[(S)-1-(4-trifluoromethylphenyl)ethylamino]-5,6,7,8-tetrahydro-3H-pyrido[4,3-d]pyrimidin-4-one] gave a Ki of 9 nM. This Ki lies about 3.4-fold lower than the previous one. Regarding `COn1c(N[C@@H](C)c2ccc(C(F)(F)F)cc2)nc2c(c1=O)CN(C(=O)c1ccc(Cl)o1)CC2` [Example 2454, 6-(5-chloro-furan-2-carbonyl)-3-methoxy-2-[(S)-1-(4-trifluoromethylphenyl)ethylamino]-5,6,7,8-tetrahydro-3H-pyrido[4,3-d]pyrimidin-4-one], the Ki is 48 nM. On to `CC(C)COn1c(N[C@@H](C)c2ccc(C(F)(F)F)cc2)nc2c(c1=O)CN(C(=O)c1ccc(C#N)cc1F)CC2` [Example 2416, 3-fluoro-4-{3-isobutoxy-4-oxo-2-[(S)-1-(4-trifluoromethylphenyl)ethylamino]-3,5,7,8-tetrahydro-4H-pyrido[4,3-d]pyrimidine-6-carbonyl}benzonitrile], for which the affinity corresponds to a Ki of 33 nM.
